In this assay the target is T1, LTD4 /E4 receptors (Cavia porcellus, UniProt Q2NNR5).
T1 construct: membrane fractions, containing the LTD4 /E4 receptors, are prepared from guinea-pig lung parenchyma; from tissue; host or cells: guinea-pig lung parenchyma membrane fractions
T1 sequence (Q2NNR5 1-340): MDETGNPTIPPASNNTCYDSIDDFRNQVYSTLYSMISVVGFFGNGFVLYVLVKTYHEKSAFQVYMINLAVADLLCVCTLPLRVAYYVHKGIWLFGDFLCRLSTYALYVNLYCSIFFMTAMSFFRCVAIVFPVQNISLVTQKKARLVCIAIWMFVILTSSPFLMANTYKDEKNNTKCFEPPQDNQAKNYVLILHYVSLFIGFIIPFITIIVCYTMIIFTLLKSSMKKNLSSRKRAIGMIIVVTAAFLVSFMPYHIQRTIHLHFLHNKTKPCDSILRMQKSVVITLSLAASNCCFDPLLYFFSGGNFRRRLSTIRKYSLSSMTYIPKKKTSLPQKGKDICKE
The experiment in a line: receptor-ligand binding assay (3H-LTD4). The note with it: membrane fractions from guinea-pig lung parenchyma, 1nM 3H-LTD4, 30 minutes at 22° C.; Ki from IC50 by Cheng-Prusoff. How it is done: According to this procedure, membrane fractions, containing the LTD4 /E4 receptors, are prepared from guinea-pig lung parenchyma and incubated for 30 minutes at 22° C. with 1nM ^3 H-LTD4 in the absence or presence of tested antagonist. Specific binding, determined under conditions that prevent enzymatic metabolism of ^3 H-LTD4, is the net result of total ^3 H-LTD4 binding minus nonspecific binding determined in the presence of 1-2000 fold excess unlabelled LTD . Each assay is done in duplicate and results (Ki values) are typically a mean of several such determinations in individual receptor batches.
The % inhibition by a tested antagonist, relative to control binding (vehicle alone), is expressed as a fraction of log[antagonist] concentration (in molar units) and the half-maximal inhibition (IC50) determined by computerized non-linear least-square analysis. The binding constant (Ki) is then calculated from IC50 by the Cheng-Prusoff equation: [formula] where [L] is ^3 H-LTD4 concentraton and Kd is the affinity constant of LTD4 to this receptor, determined separately for each batch. (Biochem. Pharmacol. 22: 3099-3108, 1973).

SMILES strings stand for the structures.

In turn, `CCC(C)CNC(=O)c1ccc2cccc(Cc3ccc(C(=O)NS(=O)(=O)c4ccccc4C)cc3OC)c2c1` (stereo not shown) [Example 10, 3-Methoxy-4-[7-(2-methylbutylcarbamoyl)naphth-1-ylmethyl]-N-(2-methylphenylsulfonyl)benzamide] gave a Ki of 3.16 nM.
